The subject of series [1] is thrombocyte aggregation. Description: Determination of the thrombocyte aggregation according to Born and Cross (collagen-provoked, platelet-rich plasma). The format is cell-based, healthy test persons. The note with it: collagen-induced aggregation. As for the experimental part:
TEST 1. DETERMINATION OF THE THROMBOCYTE AGGREGATION ACCORDING TO BORN AND CROSS [J. PHYSIOL. 170, 397 (1964)].
The thrombocyte aggregation was measured in platelet-rich plasma of healthy test persons. The decrease of the optical density was photometrically measured and recorded after addition of commercial collagen (Sigma, St. Louis, Mo., USA) which contained […] of collagen-fibrils per ml. The velocity of aggregation (Vmax) was determined by the angle of inclination of the density curve. The point of the curve, where the most light was transmitted, served for the determination of the optical density (o.d.). To provoke maximum aggregation, approximately 0.01 ml of the collagen solution was added to 1 ml of platelet-rich plasma.

For series [2], the system named is white mice. In words: Acute toxicity, single oral dose. Format: in vivo. The note with it: white mice, 14 days observation. As for the experimental part:
(§1) The acute toxicity of the substances tested was determined in white mice after oral adminstration of a single dose (observation time: 14 days).

Series [3] is described as follows: Acute toxicity, single oral dose. The format is in vivo. As to conditions: mouse, in vivo, po; read-out: Acute toxicity mg/kg p.o. As for the experimental part: as §1
Series [4] has as its system cats. Description: Determination of the hypotensive and positive inotropic activity in the cat. Format: in vivo. As to the method:
TEST 2. DETERMINATION OF THE HYPOTENSIVE AND POSITIVE INOTROPIC ACTIVITY IN THE CAT
The tests were performed in cats which were anesthetized with pentobarbital sodium (40 mg/kg i.p.). The animals breathed spontaneously. The arterial blood pressure was measured in the aorta abdominalis by a Statham pressure transducer (P 23 Dc). The positive inotropic effect was determined by measuring the pressure in the left […] by means of a catheter tipmanometer (Millar PC 350 A). This contractility parameter dp/dtmax was registered by means of an analog differentiating circuit. The substances under test were injected into a vena femoralis. Physiological sodium […] solution or polydiol 200 was used as solvent.

[5] abbreviates: Felis catus, iv, 0.5 mg/kg i.v., read-out: Change of dp/dt in %.

This note sets out measurements from patent publication US4361563A, “Pyridazinone-substituted benzimidazoles and salts” (priority 1978, dated 1982).

By EC50 is commonly meant the concentration needed to bring the measured effect to its halfway point. In series [1], `COc1ccc(-c2nc3ccc(C4=NNC(=O)CC4C)cc3[nH]2)cc1` (stereo not shown) [G, 2-(4-Methoxy-phenyl)-5(6)-(5-methyl-3-oxo-4,5-dihydro-2H-6-pyridazinyl)-benzimidazole] showed an EC50 of 80 nM. The animals died in series [2] (600 mg/kg p.o.) is reported as 3 out of 6. Moreover, the LD50 at 336 h in series [3] was approximately 600 mg/kg. Also, in series [4] (0.1 mg/kg i.v.), the “Change of blood pressure, second value of the pair (after the slash)” value (“Change of blood pressure … (after the slash)” for short) amounted to 0 mgm Hg and the “Duration of action” value is more than 26 min. For the same molecule, in series [4] (0.5 mg/kg i.v.), the “Change of blood pressure, first value of the pair (before the slash)” value is recorded as -18 mgm Hg; the “Change of blood pressure … (after the slash)” value is recorded as -18 mgm Hg; the “Duration of action” value is more than 72 min. Also, the change in vivo at 0.1 mg/kg in series [4] (Felis catus, iv, 0.1 mg/kg i.v., read-out: Change of dp/dt in %) stood at 23%. The change in vivo at 0.5 mg/kg in series [4] (setting [5]) amounted to 64%.
Turning to `Cc1nc2cc(C3=NNC(=O)C(C)C3)ccc2[nH]1` (stereo not shown) [N, 2-Methyl-5(6)-(4-methyl-3-oxo-4,5-dihydro-2H-6-pyridazinyl)-benzimidazole, reference compound], it took 1000 nM to reach a half-maximal effect in series [1] (EC50). The animals died in series [2] (250 mg/kg p.o.) is listed as 0 out of 10. In addition, the LD50 at 336 h in series [3] was more than 250 mg/kg. In series [4] (0.5 mg/kg i.v.), the “Change of blood pressure … (after the slash)” value amounted to 3 mgm Hg and the “Duration of action” value was found to be 22 min. The change in vivo at 0.5 mg/kg in series [4] (setting [5]) came to 23%.
